The source of these data is PMC5513865 (British Journal of Pharmacology, 2017).

In series [1] the target is T1, human κ receptor (Homo sapiens, UniProt P41145). Nature of the series: biochemical. The class given is biochemical. Set-up: expressed in transfected cells.
The target of series [2] is T1, human κ receptor. The series can be described thus: cell-based. The class given is cell-based. Further details: host or cells: U2OS (U2OS–hκ receptor–β‐arrestin2 cells), PathHunter eXpress.
A further series has as its target T2, human NOP receptor (Homo sapiens, UniProt P41146).
T2 construct: expressed in transfected cells
The series can be described thus: [3H]-N/OFQ NOP receptor binding assay, CHO-hNOP membranes. The settings on record: up to a concentration of 10 μM.

The target of the next series is δ receptor. Set-up: method as in Spetea et al., 2012. The settings on record: ref Spetea et al., 2012; read-out: binding affinity for the δ receptor; cited from earlier work.
Series [3] concerns human κ receptor.
The subject of series [4] is μ receptor gene-disrupted 'knockout' (μ-KO) mice. To be noted: mouse, in vivo.
The target of a further series is μ receptor. Further details: method as in Spetea et al., 2012. The settings on record: ref Spetea et al., 2012; read-out: binding affinity (Ki) for the μ receptor; cited from earlier work.
A further series concerns the target T3, human μ receptor (Homo sapiens, UniProt P35372).
T3 construct: expressed in transfected cells
The series can be described thus: [35S]-GTPγS binding assay, CHO-hμ membranes. The settings on record: at concentrations up to 10 μM. Format: biochemical.

Series [5] concerns κ receptor gene-disrupted 'knockout' (κ-KO) mice. To be noted: mouse, in vivo.
Series [6] has as its system C57BL/6J wild-type mice. The settings on record: mouse, in vivo.
The subject of series [7] is C57BL/6J wild-type mice. Nature of the series: Rotorod assay to determine locomotor activity. The class given is in vivo, mouse. To be noted: i.c.v., HS665 10 nmol, HS666 30 nmol (ED90); 10-60 min.
In series [8] the test system is C57BL/6J wild-type mice. To be noted: mouse, in vivo. The source holds these as a separate data set.
The target in series [9] is human κ receptor. Set-up: method as in Spetea et al., 2012. The settings on record: ref Spetea et al., 2012, read-out: binding affinity (Ki) for the κ receptor; cited from earlier work.
The test system of another series is mice. Further details: method as in Spetea et al., 2012. To be noted: s.c., ref Spetea et al., 2012; cited from earlier work.
Series [10] relates to C57BL/6J wild-type mice. Further details: method as in Aldrich et al., 2014. To be noted: i.c.v.; ref Aldrich et al., 2014; cited from earlier work.

Several values for one entry are separate records, joined by “and”; a condition that tells them apart may be missing. Identical values can stand only once. Counter-ions that a name gives are not always drawn. A value given as a limit tells only on which side of the number the result lay.

T1 sequence (P41145 whole entry): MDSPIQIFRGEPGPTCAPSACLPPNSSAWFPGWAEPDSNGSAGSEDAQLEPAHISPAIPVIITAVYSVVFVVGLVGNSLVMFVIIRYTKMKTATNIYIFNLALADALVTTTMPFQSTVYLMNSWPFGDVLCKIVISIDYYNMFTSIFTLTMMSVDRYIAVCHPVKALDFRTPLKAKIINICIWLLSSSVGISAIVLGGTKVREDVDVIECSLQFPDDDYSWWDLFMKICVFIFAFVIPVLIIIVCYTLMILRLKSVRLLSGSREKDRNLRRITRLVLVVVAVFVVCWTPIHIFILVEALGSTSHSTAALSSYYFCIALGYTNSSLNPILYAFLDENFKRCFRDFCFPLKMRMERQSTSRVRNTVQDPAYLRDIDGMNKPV
T2 sequence (P41146 whole entry): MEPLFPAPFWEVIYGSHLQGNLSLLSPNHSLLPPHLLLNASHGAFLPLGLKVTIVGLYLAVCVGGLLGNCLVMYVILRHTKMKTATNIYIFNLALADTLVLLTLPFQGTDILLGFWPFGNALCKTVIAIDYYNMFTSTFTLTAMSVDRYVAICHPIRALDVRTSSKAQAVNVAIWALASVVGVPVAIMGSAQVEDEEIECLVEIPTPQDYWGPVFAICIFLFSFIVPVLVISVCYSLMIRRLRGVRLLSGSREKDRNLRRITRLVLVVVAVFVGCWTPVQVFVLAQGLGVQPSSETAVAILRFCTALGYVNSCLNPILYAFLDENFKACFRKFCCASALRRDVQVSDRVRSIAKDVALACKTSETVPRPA
T3 sequence (P35372 whole entry): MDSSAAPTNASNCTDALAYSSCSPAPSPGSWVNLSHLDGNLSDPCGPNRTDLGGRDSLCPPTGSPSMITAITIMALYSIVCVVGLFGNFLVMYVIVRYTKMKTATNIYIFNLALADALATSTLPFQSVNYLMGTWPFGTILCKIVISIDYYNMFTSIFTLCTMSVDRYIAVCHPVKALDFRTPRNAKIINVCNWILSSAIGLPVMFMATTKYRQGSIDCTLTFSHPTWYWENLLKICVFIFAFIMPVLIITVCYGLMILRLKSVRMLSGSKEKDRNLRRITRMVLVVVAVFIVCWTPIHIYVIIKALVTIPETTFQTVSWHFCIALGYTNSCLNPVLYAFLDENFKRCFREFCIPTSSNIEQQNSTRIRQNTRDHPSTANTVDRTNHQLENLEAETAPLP

As to `Oc1ccc2c3c1O[C@H]1c4[nH]c5c(c4C[C@@]4(O)[C@@H](C2)N(CC2CC2)CC[C@]314)C[C@@]1(O)[C@H]2Cc3ccc(O)c4c3[C@@]1(CCN2CC1CC1)[C@H]5O4` [nor-BNI, nor‐binaltorphimine, reference compound], on human κ receptor [1], the “inhibition of U69,593-stimulated [35S]-GTPγS coupling” value was “completely blocks coupling”.

Take `Oc1cccc(CCN(CCc2ccccc2)CC2CC2)c1` [HS666]: at human κ receptor [2], the EC50 turned out to be 449 ± 56 nM and the “log(τ/KA) β-arrestin2” value was found to be 3.52 ± 0.02. Also, at human κ receptor [2] (read-out: β-arrestin2 recruitment Emax), the maximum response (Emax) stood at 24 ± 1%. Further, on human NOP receptor, the “affinity for the NOP receptor” value is recorded as “no significant affinity”. Besides, the Ki on δ receptor is > 10 µM. In the series with human κ receptor [3], the “bias factor (G protein over β-arrestin2)” value is 62; the “fold decrease in potency, [35S]-GTPγS assay versus PathHunter assay” value amounted to 13 fold; the “ΔΔlog(τ/KA) G protein - β-arrestin2” value was 1.79. In addition, the “antinociceptive activity in μ-KO mice compared with wild-type” value in series [4] is given as “not statistically altered”. Also, at human κ receptor [1], the midpoint of the response, the EC50, lay at 35.7 ± 6 nM; the “agonist-stimulated [35S]-GTPγS binding in the presence of nor-BNI” value is recorded as “significantly antagonized”; the “inhibition of U69,593-stimulated [35S]-GTPγS coupling” value is “partially blocks”; the “log(τ/KA) G protein” value worked out at 5.73 ± 0.29. Also, the Emax at human κ receptor [1] (read-out: G protein coupling Emax) is 50 ± 4%. At μ receptor, the Ki is 826 nM. Further, on human μ receptor, the “G protein activation (agonist activity) at the μ receptor” value is reported as “no agonist activity”. Moreover, the “antinociceptive activity in κ-KO mice compared with wild-type” value in [5] is given as “no antinociceptive activity”. In addition, in the series on C57BL/6J wild-type mice [6], the “conditioned place preference or aversion” value is “neither significant preference nor aversion”. The “effect on motor performance (latency to fall)” value with C57BL/6J wild-type mice [7] is given as “did not significantly impact motor performance”. In the series on C57BL/6J wild-type mice [8], the “% antinociception” value is 1.00 ± 0.48%. Moreover, on human κ receptor [9], the Ki is 5.9 nM.

For the compound `Oc1cccc(CCN(CCc2ccccc2)CC2CCC2)c1` [HS665], on human NOP receptor, the “affinity for the NOP receptor” value is “no significant affinity”. The “bias factor (G protein over β-arrestin2)” value in the series with human κ receptor [3] is 389. Further, the “antinociceptive activity in μ-KO mice compared with wild-type” value in series [4] is “not statistically altered”. Moreover, the “κ receptor-mediated antinociceptive effects in the writhing test” value in the series on mice is “comparable with U50,488”. Moreover, on human μ receptor, the “G protein activation (agonist activity) at the μ receptor” value was “no agonist activity”. Moreover, the “conditioned place preference or aversion” value in the series with C57BL/6J wild-type mice [6] is “significant place aversion”. Also, the “effect on motor performance (latency to fall)” value in the series on C57BL/6J wild-type mice [7] was “did not significantly impact motor performance”. Further, in the series on C57BL/6J wild-type mice [8], the “% antinociception” value worked out at 1.97 ± 1.18%; the “antinociceptive ED50 and 95% C.I.” value is 3.99 (3.14 – 5.33) nmol and 4.74 (3.72 – 6.41) nmol and 3.74 (2.98–4.78) nmol and 3.74 nmol.

As for `CN1CC[C@]23c4c5ccc(O)c4O[C@H]2[C@@H](O)C=C[C@H]3[C@H]1C5` [morphine, morphine sulfate, reference compound], the “antinociceptive ED50” value in the series with C57BL/6J wild-type mice [10] is given as 2.35 nmol. In addition, in the series with C57BL/6J wild-type mice [6], the “conditioned place preference or aversion” value is given as “significant CPP”.
